Assay results reported in ChEMBL document CHEMBL1275460, “Molecular characterization and epidemiology of extended-spectrum-beta-lactamase-producing Escherichia coli and Klebsiella pneumoniae isolates causing health care-associated infection in Thailand, where the CTX-M family is endemic” (2008).
Values after ≈ are worked out from the molar mass of the structure shown.

Assays:
Type in all cases: functional
Klebsiella pneumoniae [1] = assay: Antimicrobial activity against extended-spectrum beta lactamase producing Klebsiella pneumoniae expressing beta-lactamase CTX-M-3, CTX-M-15 and CTX-M-55 gene assessed as susceptible isolates by Etest
Escherichia coli [2] = assay: Antimicrobial activity against extended-spectrum beta lactamase producing Escherichia coli expressing beta-lactamase CTX-M-3, CTX-M-15 and CTX-M-55 and other bla gene assessed as susceptible isolates by Etest
Escherichia coli [3] = assay: Antimicrobial activity against extended-spectrum beta lactamase producing Escherichia coli expressing beta-lactamase CTX-M-14 and CTX-M-27 gene and other bla gene assessed as susceptible isolates by Etest; settings: pooled result: one value given for 2 cell lines, strains, targets or settings
Klebsiella pneumoniae [4] = assay: Antimicrobial activity against extended-spectrum beta lactamase producing Klebsiella pneumoniae expressing beta-lactamase CTX-M-3, CTX-M-15 and CTX-M-55 and other bla gene assessed as susceptible isolates by Etest
Klebsiella pneumoniae [5] = assay: Antimicrobial activity against extended-spectrum beta lactamase producing Klebsiella pneumoniae assessed as resistant isolates by Etest
Escherichia coli [6] = assay: Antimicrobial activity against extended-spectrum beta lactamase producing Escherichia coli assessed as resistant isolates by Etest
Escherichia coli [7] = assay: Antimicrobial activity against extended-spectrum beta lactamase producing Escherichia coli expressing beta-lactamase CTX-M-3, CTX-M-15 and CTX-M-55 gene assessed as susceptible isolates by Etest
Escherichia coli [8] = assay: Antimicrobial activity against extended-spectrum beta lactamase producing Escherichia coli expressing beta-lactamase CTX-M-14 and CTX-M-27 gene assessed as susceptible isolates by Etest; settings: pooled result: one value given for 2 cell lines, strains, targets or settings
Klebsiella pneumoniae [9] = assay: Antimicrobial activity against extended-spectrum beta lactamase producing Klebsiella pneumoniae expressing beta-lactamase CTX-M-3, CTX-M-15 and CTX-M-55 and other bla gene by Etest
Klebsiella pneumoniae [10] = assay: Antimicrobial activity against extended-spectrum beta lactamase producing Klebsiella pneumoniae expressing beta-lactamase CTX-M-14 and CTX-M-27 gene and other bla gene by Etest
Escherichia coli [11] = assay: Antimicrobial activity against extended-spectrum beta lactamase producing Escherichia coli by Etest
Escherichia coli [12] = assay: Antimicrobial activity against extended-spectrum beta lactamase producing Escherichia coli expressing beta-lactamase CTX-M-14 and CTX-M-27 and other bla gene by Etest
Escherichia coli [13] = assay: Antimicrobial activity against extended-spectrum beta lactamase producing Escherichia coli expressing beta-lactamase CTX-M-3, CTX-M-15 and CTX-M-55 gene by Etest
Escherichia coli [14] = assay: Antimicrobial activity against extended-spectrum beta lactamase producing Escherichia coli expressing beta-lactamase CTX-M-3, CTX-M-15 and CTX-M-55 and other bla gene by Etest
Klebsiella pneumoniae [15] = assay: Antimicrobial activity against extended-spectrum beta lactamase producing Klebsiella pneumoniae expressing beta-lactamase CTX-M-14 and CTX-M-27 gene by Etest
Escherichia coli [16] = assay: Antimicrobial activity against extended-spectrum beta lactamase producing Escherichia coli expressing beta-lactamase CTX-M-14 and CTX-M-27 gene by Etest
Klebsiella pneumoniae [17] = assay: Antimicrobial activity against extended-spectrum beta lactamase producing Klebsiella pneumoniae by Etest
Klebsiella pneumoniae [18] = assay: Antimicrobial activity against extended-spectrum beta lactamase producing Klebsiella pneumoniae expressing beta-lactamase CTX-M-3, CTX-M-15 and CTX-M-55 gene by Etest

Row | Compound | Activity (Klebsiella pneumoniae [1]) [%] | Activity (Escherichia coli [2]) [%] | Activity (Escherichia coli [3]) [%] | Activity (Klebsiella pneumoniae [4]) [%] | Activity (Klebsiella pneumoniae [5]) [%] | Activity (Escherichia coli [6]) [%] | Activity (Escherichia coli [7]) [%] | Activity (Escherichia coli [8]) [%] | MIC90 (Klebsiella pneumoniae [9]) [µg/mL] | MIC90 (Klebsiella pneumoniae [10]) [µg/mL] | MIC50 (Escherichia coli [11]) [µg/mL] | MIC90 (Escherichia coli [11]) [µg/mL] | MIC90 (Escherichia coli [12]) [µg/mL] | MIC90 (Escherichia coli [13]) [µg/mL] | MIC90 (Escherichia coli [14]) [µg/mL] | MIC90 (Klebsiella pneumoniae [15]) [µg/mL] | MIC90 (Escherichia coli [16]) [µg/mL] | MIC50 (Klebsiella pneumoniae [17]) [µg/mL] | MIC90 (Klebsiella pneumoniae [17]) [µg/mL] | MIC90 (Klebsiella pneumoniae [18]) [µg/mL]
1 | NCC[C@H](O)C(=O)N[C@@H]1C[C@H](N)[C@@H](O[C@H]2O[C@H](CN)[C@@H](O)[C@H](O)[C@H]2O)[C@H](O)[C@H]1O[C@H]1O[C@H](CO)[C@@H](O)[C@H](N)[C@H]1O [AMIKACIN] | 81 | 81 | 78.9 | 81 | 28.6 | 12.5 | 81 | 83.3 | – | – | – | – | – | – | – | – | – | – | – | –
2 | CO/N=C(\C(=O)N[C@@H]1C(=O)N2C(C(=O)O)=C(COC(C)=O)CS[C@H]12)c1csc(N)n1 [CEFOTAXIME] | – | – | – | – | – | – | – | – | > 256 | 256 (≈ 562 µM) | 256 (≈ 562 µM) | > 256 | 256 (≈ 562 µM) | > 256 | > 256 | 128 (≈ 281 µM) | 128 (≈ 281 µM) | 128 (≈ 281 µM) | > 256 | > 256
3 | CC(C)(O/N=C(\C(=O)N[C@@H]1C(=O)N2C(C(=O)[O-])=C(C[n+]3ccccc3)CS[C@H]12)c1csc(N)n1)C(=O)O [CEFTAZIDIME] | – | – | – | – | – | – | – | – | > 256 | > 256 | 32 (≈ 58.5 µM) | 256 (≈ 468 µM) | > 256 | 256 (≈ 468 µM) | > 256 | 16 (≈ 29.3 µM) | 16 (≈ 29.3 µM) | 128 (≈ 234 µM) | > 256 | 256 (≈ 468 µM)
4 | CO/N=C(\C(=O)N[C@@H]1C(=O)N2C(C(=O)O)=C(CSc3nc(=O)c(O)nn3C)CS[C@H]12)c1csc(N)n1 [CEFTRIAXONE] | – | – | – | – | – | – | – | – | > 256 | > 256 | > 256 | > 256 | > 256 | > 256 | > 256 | > 256 | > 256 | > 256 | > 256 | > 256
5 | O=C(O)c1cn(C2CC2)c2cc(N3CCNCC3)c(F)cc2c1=O [CIPROFLOXACIN] | 20.4 | 11.1 | 8.3 | 11.1 | 76.6 | 78.1 | 20.4 | 25.7 | – | – | – | – | – | – | – | – | – | – | – | –
6 | C[C@@H](O)[C@H]1C(=O)N2C(C(=O)O)=C(S[C@@H]3CN[C@H](C(=O)Nc4cccc(C(=O)O)c4)C3)[C@H](C)[C@H]12 [ERTAPENEM] | – | – | – | – | – | – | – | – | 0.5 (≈ 1.05 µM) | 0.25 (≈ 0.526 µM) | 0.094 (≈ 0.198 µM) | 0.38 (≈ 0.799 µM) | 0.25 (≈ 0.526 µM) | 0.38 (≈ 0.799 µM) | 0.5 (≈ 1.05 µM) | 0.19 (≈ 0.4 µM) | 0.19 (≈ 0.4 µM) | 0.094 (≈ 0.198 µM) | 0.38 (≈ 0.799 µM) | 0.38 (≈ 0.799 µM)
7 | C[C@@H](O)[C@H]1C(=O)N2C(C(=O)O)=C(SCCNC=N)C[C@H]12 [IMIPENEM ANHYDROUS] | – | – | – | – | – | – | – | – | 0.38 (≈ 1.27 µM) | 0.38 (≈ 1.27 µM) | – | – | 0.38 (≈ 1.27 µM) | 0.5 (≈ 1.67 µM) | 0.38 (≈ 1.27 µM) | 0.5 (≈ 1.67 µM) | 0.5 (≈ 1.67 µM) | 0.25 (≈ 0.835 µM) | 0.38 (≈ 1.27 µM) | 0.5 (≈ 1.67 µM)
8 | C[C@@H](O)[C@H]1C(=O)N2C(C(=O)O)=C(S[C@@H]3CN[C@H](C(=O)N(C)C)C3)[C@H](C)[C@H]12 [MEROPENEM] | – | – | – | – | – | – | – | – | 0.125 (≈ 0.326 µM) | 0.064 (≈ 0.167 µM) | 0.047 (≈ 0.123 µM) | 0.125 (≈ 0.326 µM) | 0.064 (≈ 0.167 µM) | 0.19 (≈ 0.495 µM) | 0.125 (≈ 0.326 µM) | 0.094 (≈ 0.245 µM) | 0.094 (≈ 0.245 µM) | 0.047 (≈ 0.123 µM) | 0.125 (≈ 0.326 µM) | 0.19 (≈ 0.495 µM)
9 | CN(C)[C@@H]1C(O)=C(C(N)=O)C(=O)[C@@]2(O)C(O)=C3C(=O)c4c(O)cccc4[C@@](C)(O)[C@H]3C[C@@H]12 [TETRACYCLINE] | 4.8 | 4.9 | 5.9 | 4.9 | 85.7 | 87.5 | 4.8 | 16.7 | – | – | – | – | – | – | – | – | – | – | – | –
10 | GENTAMICIN | 24.1 | 19 | 30.3 | 19 | 76.4 | 66.3 | 24.1 | 33.3 | – | – | – | – | – | – | – | – | – | – | – | –
